{"source": "ChEMBL document CHEMBL4699496", "about": "“Exploring efficacy of natural-derived acetylphenol scaffold inhibitors for α-glucosidase: Synthesis, in vitro and in vivo biochemical studies” (Bioorg Med Chem Lett, 2020)", "key": {"[1]": {"assay": "Inhibition of alpha-glucosidase (unknown origin)", "parameters": "species or system Homo sapiens"}, "Homo sapiens [2]": {"organism": "Homo sapiens", "assay": "Binding affinity to alpha-glucosidase (unknown origin) assessed as hydrophobic interactions by measuring change in enthalpy at 304 K by Van't Hoff equation analysis"}, "Homo sapiens [3]": {"organism": "Homo sapiens", "assay": "Binding affinity to alpha-glucosidase (unknown origin) assessed as change in the microenvironment of tyrosine residue by measuring red shift at 0.16 to 1.66 uM by fluorescence based Synchronous fluorescence spectroscopy", "settings": "dose microM 0.16-1.66"}, "Homo sapiens [4]": {"organism": "Homo sapiens", "assay": "Binding affinity to alpha-glucosidase (unknown origin) assessed as Stern-Volmer quenching constant at 298 K"}, "Homo sapiens [5]": {"organism": "Homo sapiens", "assay": "Binding affinity to alpha-glucosidase (unknown origin) assessed as change in gibbs free energy at 310 K by Van't Hoff equation analysis"}, "Homo sapiens [6]": {"organism": "Homo sapiens", "assay": "Binding affinity to alpha-glucosidase (unknown origin) assessed as quenching constant at 298 K"}, "Homo sapiens [7]": {"organism": "Homo sapiens", "assay": "Binding affinity to alpha-glucosidase (unknown origin) assessed as decrease in fluorescence intensity of Tyr residue without shift in maximum emission wavelength at 0.16 to 1.66 uM by fluorescence based Synchronous fluorescence spectroscopy", "settings": "dose microM 0.16-1.66"}, "Homo sapiens [8]": {"organism": "Homo sapiens", "assay": "Binding affinity to alpha-glucosidase (unknown origin) assessed as decrease in fluorescence intensity at 0.16-1.66 uM by fluorescence based Synchronous fluorescence spectroscopy", "settings": "dose microM 0.16-1.66"}, "Rattus norvegicus [9]": {"organism": "Rattus norvegicus", "assay": "Inhibition of alpha-glucosidase in rat everted intestinal sleeves assessed as reduction in blood glucose AUC (0-90) outside of the intestinal sleeves at 0.173 mM", "type": "tissue-based", "settings": "Intestine, time min 0-90"}, "Homo sapiens [10]": {"organism": "Homo sapiens", "assay": "Non-competitive inhibition of alpha-glucosidase (unknown origin) assessed as decrease in Vmax with constant Km at 0.0 to 0.92 uM using p-NPG as substrate by Lineweaver-Burk plot analysis", "settings": "dose microM 0.0-0.92"}, "Homo sapiens [11]": {"organism": "Homo sapiens", "assay": "Binding affinity to alpha-glucosidase (unknown origin) assessed as enzyme complexation with compound at 2.5 uM by measuring mean width of enzyme by atomic force microscopy (reference value: 28.35 nm)"}, "Mus musculus [12]": {"organism": "Mus musculus", "assay": "Hypoglycemic activity in Kunming mouse assessed as reduction in maltose-induced blood glucose AUC (0 to 120 mins) by maltose loading test", "type": "functional, organism-based", "settings": "time min 0-120"}, "Homo sapiens [13]": {"organism": "Homo sapiens", "assay": "Binding affinity to alpha-glucosidase (unknown origin) assessed as quenching constant at 304 K"}, "Homo sapiens [14]": {"organism": "Homo sapiens", "assay": "Binding affinity to alpha-glucosidase (unknown origin) assessed as quenching constant at 310 K"}, "Rattus norvegicus [15]": {"organism": "Rattus norvegicus", "assay": "Inhibition of alpha-glucosidase in rat everted intestinal sleeves assessed as reduction in glucose concentration within intestinal sleeves at 0.173 mM measured for 5 to 90 mins", "type": "tissue-based", "settings": "Intestine, time min 5-90"}, "Rattus norvegicus [16]": {"organism": "Rattus norvegicus", "assay": "Inhibition of alpha-glucosidase in rat everted intestinal sleeves assessed as reduction in glucose concentration outside of the intestinal sleeves at 0.173 mM measured after 5 to 90 mins", "type": "tissue-based", "settings": "Intestine, time min 5-90"}, "Homo sapiens [17]": {"organism": "Homo sapiens", "assay": "Binding affinity to alpha-glucosidase (unknown origin) assessed as Stern-Volmer quenching constant at 310 K"}, "Rattus norvegicus [18]": {"organism": "Rattus norvegicus", "assay": "Inhibition of alpha-glucosidase in rat everted intestinal sleeves assessed as reduction in blood glucose AUC (0-90) within intestinal sleeves at 0.173 mM", "type": "tissue-based", "settings": "Intestine, time min 0-90"}, "Homo sapiens [19]": {"organism": "Homo sapiens", "assay": "Binding affinity to alpha-glucosidase (unknown origin) assessed as binding constant at 310 K"}, "[20]": {"assay": "Binding affinity to alpha-glcosidase (unknown origin) using p-NPG as substrate", "parameters": "species or system Homo sapiens"}, "Homo sapiens [21]": {"organism": "Homo sapiens", "assay": "Binding affinity to alpha-glucosidase (unknown origin) assessed as destabilization of enzyme conformation by measuring induction of protein aggregation at 2.5 uM by atomic force microscopy"}, "Homo sapiens [22]": {"organism": "Homo sapiens", "assay": "Binding affinity to alpha-glucosidase (unknown origin) assessed as fluorescence quenching at 0.16 to 1.83 uM by fluorescence spectral analysis", "settings": "dose microM 0.16-1.83"}, "Homo sapiens [23]": {"organism": "Homo sapiens", "assay": "Binding affinity to alpha-glucosidase (unknown origin) assessed as Stern-Volmer quenching constant at 304 K"}, "Mus musculus [24]": {"organism": "Mus musculus", "assay": "Hypoglycemic activity in Kunming mouse assessed as reduction in maltose-induced postprandial blood glucose level measured after 15 to 120 mins by maltose loading test", "type": "functional, organism-based", "settings": "time min 15-120"}, "Homo sapiens [25]": {"organism": "Homo sapiens", "assay": "Binding affinity to alpha-glucosidase (unknown origin) assessed as change in gibbs free energy at 304 K by Van't Hoff equation analysis"}, "Homo sapiens [26]": {"organism": "Homo sapiens", "assay": "Binding affinity to alpha-glucosidase (unknown origin) assessed as binding constant at 304 K"}, "Homo sapiens [27]": {"organism": "Homo sapiens", "assay": "Binding affinity to alpha-glucosidase (unknown origin) assessed as enzyme complexation with compound by measuring mean height of enzyme at 2.5 uM by atomic force microscopy (reference value: 0.87 nm)"}, "Homo sapiens [28]": {"organism": "Homo sapiens", "assay": "Binding affinity to alpha-glucosidase (unknown origin) assessed as change in gibbs free energy at 298 K by Van't Hoff equation analysis"}, "Homo sapiens [29]": {"organism": "Homo sapiens", "assay": "Binding affinity to alpha-glucosidase (unknown origin) assessed as change in the microenvironment of tryptophan residue by measuring blue shift at 0.16 to 1.66 uM by fluorescence based Synchronous fluorescence spectroscopy", "settings": "dose microM 0.16-1.66"}, "Homo sapiens [30]": {"organism": "Homo sapiens", "assay": "Binding affinity to alpha-glucosidase (unknown origin) assessed as binding constant at 298 K"}, "Homo sapiens [31]": {"organism": "Homo sapiens", "assay": "Binding affinity to alpha-glucosidase (unknown origin) assessed as hydrogen bonding interactions by measuring change in entropy at 304 K by Van't Hoff equation analysis"}}, "note": "Activity calls are given as the source filed them. No cut-off for these calls is given here.", "data": [{"smiles": "CC(C)C(=O)c1cc(Br)c(OC(=O)CI)cc1O", "values": [{"measurement": "IC50", "setting": "[1]; read-out: IC50", "value": 11.3, "unit": "µM"}]}, {"smiles": "Cc1cc(C(=O)C(C)C)c(O)cc1OC(=O)Cc1ccccc1", "values": [{"measurement": "IC50", "setting": "[1]; read-out: IC50", "value": 25.4, "unit": "µM"}]}, {"smiles": "Cc1cc(C(=O)C(C)C)c(O)cc1OC(=O)c1ccccc1Cl", "values": [{"measurement": "IC50", "setting": "[1]; read-out: IC50", "value": 27.4, "unit": "µM"}]}, {"smiles": "CC(C)C(=O)c1cc(Br)c(OC(=O)CBr)cc1O", "values": [{"measurement": "IC50", "setting": "[1]; read-out: IC50", "value": 15, "unit": "µM"}]}, {"smiles": "Cc1cc(C(=O)C(C)C)c(O)cc1OC(=O)CBr", "values": [{"measurement": "IC50", "setting": "[1]; read-out: IC50", "value": 14.9, "unit": "µM"}]}, {"smiles": "CCCCCC(=O)c1cc(C)c(O)cc1O", "values": [{"measurement": "IC50", "setting": "[1]; read-out: IC50", "value": 66.5, "unit": "µM"}]}, {"smiles": "Cc1cc(C(=O)C(C)C)c(O)c(Br)c1OC(=O)c1ccc(I)cc1", "values": [{"measurement": "IC50", "setting": "[1]; read-out: IC50", "value": 25.4, "unit": "µM"}]}, {"smiles": "CCCC(=O)Oc1cc(O)c(C(=O)C(C)C)cc1C", "values": [{"measurement": "IC50", "setting": "[1]; read-out: IC50", "value": 43.2, "unit": "µM"}]}, {"smiles": "CCCCCCC(=O)c1cc(C)c(O)cc1O", "values": [{"measurement": "IC50", "setting": "[1]; read-out: IC50", "value": 40.9, "unit": "µM"}]}, {"smiles": "CCCCCCC(=O)c1ccc(O)cc1O", "values": [{"measurement": "IC50", "setting": "[1]; read-out: IC50", "value": 81.9, "unit": "µM"}]}, {"smiles": "CC(C)C(=O)c1ccc(OC(=O)CBr)cc1O", "values": [{"measurement": "IC50", "setting": "[1]; read-out: IC50", "value": 35.8, "unit": "µM"}]}, {"smiles": "Cc1cc(C(=O)C(C)C)c(O)c(Br)c1OC(=O)CI", "values": [{"measurement": "deltaH", "setting": "Homo sapiens [2]", "value": -4.67, "unit": "kcal/mol"}, {"measurement": "Activity", "setting": "Homo sapiens [3]", "value": "Active"}, {"measurement": "KSV", "setting": "Homo sapiens [4]", "value": "2.98 10^4L/mol"}, {"measurement": "deltaG", "setting": "Homo sapiens [5]", "value": -8.89, "unit": "kcal/mol"}, {"measurement": "Kq", "setting": "Homo sapiens [6]", "value": "2.98 10^12L/mol/s"}, {"measurement": "Activity", "setting": "Homo sapiens [7]", "value": "inactive"}, {"measurement": "Activity", "setting": "Homo sapiens [8]", "value": "Active"}, {"measurement": "inhibition", "setting": "Rattus norvegicus [9]", "value": "Active"}, {"measurement": "inhibition", "setting": "Homo sapiens [10]", "value": "Active"}, {"measurement": "Activity", "setting": "Homo sapiens [11]", "value": 29.6, "unit": "nm"}, {"measurement": "Activity", "setting": "Mus musculus [12]", "value": "Active"}, {"measurement": "Kq", "setting": "Homo sapiens [13]", "value": "2.59 10^12L/mol/s"}, {"measurement": "Kq", "setting": "Homo sapiens [14]", "value": "2.24 10^12L/mol/s"}, {"measurement": "inhibition", "setting": "Rattus norvegicus [15]", "value": "Active"}, {"measurement": "inhibition", "setting": "Rattus norvegicus [16]", "value": "Active"}, {"measurement": "KSV", "setting": "Homo sapiens [17]", "value": "2.24 10^4L/mol"}, {"measurement": "IC50", "setting": "[1]; read-out: IC50", "value": 0.57, "unit": "µM"}, {"measurement": "inhibition", "setting": "Rattus norvegicus [18]", "value": "Active"}, {"measurement": "Ka", "setting": "Homo sapiens [19]", "value": "1.36 10^4L/mol"}, {"measurement": "Ki", "setting": "[20]", "value": 0.65, "unit": "µM"}, {"measurement": "Activity", "setting": "Homo sapiens [21]", "value": "Active"}, {"measurement": "Activity", "setting": "Homo sapiens [22]", "value": "Active"}, {"measurement": "KSV", "setting": "Homo sapiens [23]", "value": "2.59 10^4L/mol"}, {"measurement": "Activity", "setting": "Mus musculus [24]", "value": "Dose-dependent effect"}, {"measurement": "deltaG", "setting": "Homo sapiens [25]", "value": -8.81, "unit": "kcal/mol"}, {"measurement": "Ka", "setting": "Homo sapiens [26]", "value": "1.45 10^4L/mol"}, {"measurement": "Activity", "setting": "Homo sapiens [27]", "value": 3.97, "unit": "nm"}, {"measurement": "deltaG", "setting": "Homo sapiens [28]", "value": -8.73, "unit": "kcal/mol"}, {"measurement": "Activity", "setting": "Homo sapiens [29]", "value": "Active"}, {"measurement": "Ka", "setting": "Homo sapiens [30]", "value": "1.56 10^4L/mol"}, {"measurement": "deltaS", "setting": "Homo sapiens [31]", "value": 57, "unit": "J/mol/K"}]}, {"smiles": "CCCCC(=O)c1ccc(OC(=O)CI)cc1O", "values": [{"measurement": "IC50", "setting": "[1]", "value": "Not Active"}]}, {"smiles": "Cc1cc(C(=O)C(C)C)c(O)cc1OC(=O)c1ccc(Cl)cc1", "values": [{"measurement": "IC50", "setting": "[1]; read-out: IC50", "value": 10.9, "unit": "µM"}]}, {"smiles": "Cc1cc(C(=O)C(C)C)c(O)cc1OC(=O)C(C)(C)C", "values": [{"measurement": "IC50", "setting": "[1]; read-out: IC50", "value": 16, "unit": "µM"}]}]}
